{"source": "patent US8633201B2", "about": "“Thienopyrimidines having Mnk1/Mnk2 inhibiting activity for pharmaceutical compositions” (Boehringer Ingelheim International GmbH, priority 2006, dated 2014)", "key": {"[1]": {"tested_on": "cell culture cells, transfected with Mnk2 (Mnk2a or Mnk2b) or Mnk1", "conditions": "addition to cell culture cells transfected with Mnk2 (Mnk2a or Mnk2b) or Mnk1; cited from earlier work"}, "db/db mice": {"tested_on": "db/db mice", "assay": "14-day oral treatment study in db/db mice (body weight, blood glucose, plasma and pancreas parameters)", "type": "in vivo", "conditions": "oral gavage", "protocol": "BKS.Cg-m+/+Lepr^db/J (Charles River Laboratories) male mice (commonly referred to as db/db mice) are deficient in the […] due a spontaneous point mutation. They are maintained on the C57BL6/J strain.\nMice are housed four by cage at a temperature of 22-24° C. and a day/night cycle of […] (05:00-19:00-05:00), and obtain standard chow and tap water ad libitum. Mice are allowed to adapt to housing and environment for 14 days prior to substance administration.\nCompound suspensions in 0.3% Methylcellulose in saline are prepared freshly just prior to administration.\nSubstances will be administered by oral gavage in the morning at 07:00, one hour before determining fed blood glucose levels and body weight. In the evening, substance is administered between 17:00 and 18:00. Animals are visually monitored for 1 hour after the administrations.\nDosing is chosen based on the results of pharmacokinetic (PK) and dose tolerability studies. […]\nAnimals are being supplied one week in advance to allow for adaptation to housing and environment. During that time, body weight and fed blood glucose are measured daily. […]\nBodyweight and bloodglucose were measured three times a week. At the end of the study pancreatic insulin content and plasma parameters were determined."}}}
{"smiles": "Nc1ncnc2n[nH]c(Nc3ccc(F)cc3)c12", "note": "[CGP57380]", "values": [{"measurement": "phosphorylated eIF4E", "setting": "[1]", "result": "strong reduction"}]}
{"smiles": "NC(=O)c1ccc(Nc2ncnc3ccsc23)c(OC2CCOC2)c1", "note": "(stereo not drawn) [Compound 15, 3-(Tetrahydrofuran-3-yloxy)-4-(thieno[3,2-d]pyrimidin-4-ylamino)-benzamide]", "values": [{"measurement": "random fed blood glucose", "setting": "db/db mice; during the 14 day study, FIG. 2", "result": "progressive improvement"}]}
{"smiles": "CN(CCOc1ccc(CC2SC(=O)NC2=O)cc1)c1ccccn1", "note": "(stereo not drawn) [Rosiglitazone]", "values": [{"measurement": "body weight compared to vehicle", "setting": "db/db mice; d1 to d14, FIG. 1", "result": "significant increased in body weight"}]}
